Source: PMC6686156, “Discovery of Sustainable Drugs for Neglected Tropical Diseases: Cashew Nut Shell Liquid (CNSL)‐Based Hybrids Target Mitochondrial Function and ATP Production in Trypanosoma brucei” (Chemmedchem, 2019)

What was measured:
[1] = test system: T. b. brucei 427WT bloodstream trypomastigotes; experiment: ATP assay on T. b. brucei (luciferin-luciferase); type: cell-based, Trypanosoma brucei brucei; conditions: oligomycin 2.0 μg/mL, positive control
Method: (§1) ATP assay on T. b. brucei and HFF cells: Changes in cellular ATP levels due to the exposure of trypanosomes to the test compounds (0.5×EC50) were monitored using the Molecular Probes ATP Determination Kit (A22066, Invitrogen Detection Technologies), based on the luciferin–luciferase bioluminescent enzymatic reaction. Bloodstream trypomastigote cultures of T. brucei s427WT were incubated with and without test compound, and, at each predetermined incubation time, 10^7 cells of each sample were transferred into a microfuge tube and centrifuged at 2000×g for 10 min at 4 °C. The pellet was washed twice with 1 mL of 50 mM Tris⋅HCl (pH 7.4) containing 0.1 mM DTT, and then resuspended in 200 μL of the same buffer. The cells were lysed by sonication on ice (twice for 10 s separated by 30 s), using a Soniprep 150 (MSE) at 8 μm amplitude. The samples were centrifuged at 10 000×g for 10 min at 4 °C and the supernatant was collected, instantly frozen in liquid nitrogen, and stored at −80 °C. Oligomycin (2.0 μg mL^−1) was used as positive control. ATP levels were quantified using the contents of the kit following the manufacturer's instructions; 90 μL of standard reaction solution was added to each well of a 96‐well plate and the background luminescence was recorded in a FLUOstar OPTIMA fluorimeter; 10 μL of each sample was then added to each well. The plate was incubated at 28 °C for 15 min and the luminescence was measured, including a standard curve with an ATP concentration ranging from 1 nM to 1 μM to allow the calculation of the ATP concentrations in each sample. The ATP content was measured at 0, 0.5, 1, 2, 4, 8 and 12 h of incubation with test sample.

HFF cells = experiment: ATP assay on HFF cells; type: cell-based, human; conditions: 22 at 200 μM, oligomycin 2 μg/mL; 0, 4, 8 h
Method: as §1, with “same buffer. […] ATP levels” for “same buffer. The cells were lysed by sonication on ice (twice for 10 s separated by 30 s), using a Soniprep 150 (MSE) at 8 μm amplitude. The samples were centrifuged at 10 000×g for 10 min at 4 °C and the supernatant was collected, instantly frozen in liquid nitrogen, and stored at −80 °C. Oligomycin (2.0 μg mL^−1) was used as positive control. ATP levels”, “test sample. […]” for “test sample.”

[2] = test system: T. b. brucei 427WT bloodstream trypomastigotes; experiment: microbe, parasite or virus in culture; type: cell-based, Trypanosoma brucei brucei; conditions: Trypanosoma brucei, 72 h; bloodstream trypomastigotes; resazurin; 48 h + 24 h; n=4; read-out: EC50 T. b. b. 427WT
Method: (§2) Organisms and culture media: Only bloodstream trypomastigotes of T. b. brucei were used throughout this study. […] Parasites were cultured in vented flasks at 37 °C and 5 % CO2 atmosphere and they were passaged every 3 days. Bloodstream forms of T. congolense savannah‐type strain IL3000 were cultured in basal MEM medium, supplemented by 10 % fresh goat serum, 14 μL of β‐mercaptoethanol, 800 μL of 200 mM glutamine solution, and 10 mL of penicillin/streptomycin solution per liter of medium (pH 7.3).48 T. congolense were cultured in six‐well plates at 34 °C and 5 % CO2.
(§3) In brief, the assays were performed in 96‐well plates with 2×10^5 cells per well for T. b. brucei or 5×10^5 cells per well for T. congolense, in their respective culture media. First, 200 μL of test compounds’ solutions (400 μM, in T. brucei or T. congolense medium as appropriate) was added to the first well of each 12‐well row, from which doubling dilutions were conducted over one row per test compound. […] Fluorescence was detected using a FLUOstar Optima (BMG Labtech, Durham, NC, USA) at wavelength of 540 nm (excitation), 590 nm (emission). EC50 values were calculated by nonlinear regression using an equation for a sigmoidal dose–response curve with variable slope using Prism 5.0 (GraphPad Software Inc., San Diego, CA, USA).

T. b. brucei B48 = experiment: microbe, parasite or virus in culture; type: cell-based, Trypanosoma brucei brucei
Method: as §2, §3

[3] = test system: T. b. brucei aqp2/aqp3‐KO; experiment: microbe, parasite or virus in culture; type: cell-based, Trypanosoma brucei brucei
Method: as §2, §3

T. congolense IL3000 WT = experiment: In vitro drug susceptibility assay (resazurin), T. congolense; type: cell-based; conditions: Trypanosoma congolense, bloodstream forms, read-out: EC50 T. c. IL3000 WT
Method: as §2, §3

T. b. brucei ISMR1 = experiment: In vitro drug susceptibility assay (resazurin), dyskinetoplastic ISMR1 strain; type: cell-based, Trypanosoma brucei brucei; conditions: isometamidium-resistant line
Method: as §2, §3

[4] = test system: T. b. rhodesiense (STIB 900 strain); set-up: method as in earlier work; conditions: different resazurin protocol, ref 14a, read-out: IC50 (called EC50) against T. b. rhodesiense; cited from earlier work
L6 mammalian cells = test system: L6 mammalian cells; set-up: method as in earlier work; conditions: versus T. b. rhodesiense STIB 900; ref 14a; cited from earlier work

## CC[C@H]1/C=C/C=C/C[C@@H](C)[C@H](O)[C@@](C)(O)C(=O)[C@@H](C)[C@H](O)[C@@H](C)C(=O)[C@@H](C)[C@H](O)[C@@H](C)/C=C/C(=O)O[C@@H]2[C@H](C)[C@H](CC1)O[C@]1(CC[C@H](C)[C@H](C[C@@H](C)O)O1)[C@H]2C [oligomycin, reference compound]
[1]
  effect on ATP levels relative to 20 and 22: depressed the ATP levels even further
HFF cells
  effect on cellular ATP levels of HFF cells: strong effect even at 4 h

## O=C1C=C(Oc2ccccc2)C(=O)c2ccccc21 [Compound 4, 2‐phenoxynaphthalene‐1,4‐dione, reference compound]
[2]
  EC50: 48.7 ± 0.8 µM
T. b. brucei B48; B48 versus 427WT
  RF, resistance factor relative to WT (B48): 1.3
T. b. brucei B48; Trypanosoma brucei, read-out: EC50 T. b. b. B48
  EC50: 63 ± 0.4 µM
[3]; Trypanosoma brucei, read-out: EC50 T. b. b. aqp2/aq3‐KO
  EC50: 62.4 ± 0.8 µM
[3]; aqp2/aqp3-KO versus 427WT
  RF, resistance factor relative to WT (aqp2/aqp3-KO): 1.3
T. congolense IL3000 WT
  EC50: 108 ± 2 µM
T. b. brucei ISMR1
  EC50 in ISMR1 relative to 427WT tested in parallel: did not show a significant increase in the EC50 values
[4]
  IC50: 0.08 µM
L6 mammalian cells
  selectivity index (SI) with respect to L6 mammalian cells: 74
